Experimental data taken from patent publication US11591341B2 (ALIGOS THERAPEUTICS, INC., priority 2019, dated 2023).

System: HBV
Experiment: HBV-DNA Antiviral Assay Using HepG2.117 Cells (intracellular HBV DNA by qPCR)
Type: cell-based, hepatitis B virus (genotype D)
Conditions: Hepatitis B virus, HepG2.117
Method in brief: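 HepG2.117 cells (genotype D HBV, Tet-off) were induced by doxycycline withdrawal and treated for 3 days with 9 concentrations in 4-fold dilution, 2% DMSO final. Intracellular HBV DNA was measured by qPCR against a standard curve, with ATPlite viability read in parallel. EC50, EC90 and CC50 came from fits against the DMSO control.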

Row | SMILES | EC50 [nM]
1 | O=C1CCc2cc(-n3c(C(=O)NCc4ccccc4)c4n(c3=O)CCN(C(=O)c3ccc(Br)c(Cl)c3)C4)ccc2N1 [Example 403, N-benzyl-7-(4-bromo-3-chloro-benzoyl)-3-oxo-2-(2-oxo-3,4-dihydro-1H-quinolin-6-yl)-6,8-dihydro-5H-imidazo[1,5-a]pyrazine-1-carboxamide] | 500 to 5000
2 | O=C1COc2cc(-n3c(C(=O)NCc4ccccc4)c4n(c3=O)CCN(C(=O)c3ccc(Br)c(Cl)c3)C4)ccc2N1 [Example 404, N-benzyl-7-(4-bromo-3-chloro-benzoyl)-3-oxo-2-(3-oxo-4H-1,4-benzoxazin-7-yl)-6,8-dihydro-5H-imidazo[1,5-a]pyrazine-1-carboxamide] | 500 to 5000
3 | CC(C)Oc1ccc(-n2c(C(=O)NCc3ccc(C(C)(C)O)cc3)c3n(c2=O)CCN(C(=O)c2ccc(Br)c(Cl)c2)C3)cc1 [Example 407, 7-(4-bromo-3-chloro-benzoyl)-N-[[4-(1-hydroxy-1-methyl-ethyl)phenyl]methyl]-2-(4-isopropoxyphenyl)-3-oxo-6,8-dihydro-5H-imidazo[1,5-a]pyrazine-1-carboxamide] | < 100
4 | O=C(NCc1ccccc1)c1c2n(c(=O)n1-c1ccc3cn[nH]c3c1)CCN(C(=O)c1ccc(Br)c(Cl)c1)C2 [Example 408, N-benzyl-7-(4-bromo-3-chloro-benzoyl)-2-(1H-indazol-6-yl)-3-oxo-6,8-dihydro-5H-imidazo[1,5-a]pyrazine-1-carboxamide] | 100 to 500
5 | CC1(C)CN(c2ccc(-n3c(C(=O)NCc4ccccc4)c4n(c3=O)CCN(C(=O)c3ccc(Br)c(Cl)c3)C4)cc2)CCO1 [Example 410, N-benzyl-7-(4-bromo-3-chloro-benzoyl)-2-[4-(2,2-dimethylmorpholin-4-yl)phenyl]-3-oxo-6,8-dihydro-5H-imidazo[1,5-a]pyrazine-1-carboxamide] | 100 to 500
6 | Cc1nc2c(CNC(=O)c3c4n(c(=O)n3-c3ccc(OCC(F)(F)F)cc3)CCN(C(=O)c3ccc(Br)c(Cl)c3)C4)cccc2o1 [Example 411, 7-(4-bromo-3-chloro-benzoyl)-N-[(2-methyl-1,3-benzoxazol-4-yl)methyl]-3-oxo-2-[4-(2,2,2-trifluoroethoxy)phenyl]-6,8-dihydro-5H-imidazo[1,5-a]pyrazine-1-carboxamide] | 100 to 500
7 | O=C(NCc1ccccc1)c1c2n(c(=O)n1-c1ccc(N3CCCC3=O)cc1)CCN(C(=O)c1ccc(Br)c(Cl)c1)C2 [Example 412, N-benzyl-7-(4-bromo-3-chloro-benzoyl)-3-oxo-2-[4-(2-oxopyrrolidin-1-yl)phenyl]-6,8-dihydro-5H-imidazo[1,5-a]pyrazine-1-carboxamide] | 100 to 500
8 | O=C(NCc1ccccc1)c1c2n(c(=O)n1-c1ccc(N3CCO[C@H](C(F)(F)F)C3)cc1)CCN(C(=O)c1ccc(Br)c(Cl)c1)C2 [Example 415, N-benzyl-7-(4-bromo-3-chloro-benzoyl)-2-[4-(2,2-difluoro-1λ^2-fluora-8-oxa-5-azaspiro[2.5]octan-5-yl)phenyl]-3-oxo-6,8-dihydro-5H-imidazo[1,5-a]pyrazine-1-carboxamide] | 100 to 500
9 | Cc1nc2cc(-n3c(C(=O)NCc4ccccc4)c4n(c3=O)CCN(C(=O)c3ccc(Br)c(Cl)c3)C4)ccc2o1 [Example 418, N-benzyl-7-(4-bromo-3-chloro-benzoyl)-2-(2-methyl-1,3-benzoxazol-5-yl)-3-oxo-6,8-dihydro-5H-imidazo[1,5-a]pyrazine-1-carboxamide] | 100 to 500
10 | O=C(NCc1ccccc1)c1c2n(c(=O)n1-c1ccc(N3CCC3=O)cc1)CCN(C(=O)c1ccc(Br)c(Cl)c1)C2 [Example 419, N-benzyl-7-(4-bromo-3-chloro-benzoyl)-3-oxo-2-[4-(2-oxoazetidin-1-yl)phenyl]-6,8-dihydro-5H-imidazo[1,5-a]pyrazine-1-carboxamide] | 500 to 5000
11 | O=C(NCc1ccccc1-n1cc(F)cn1)c1c2n(c(=O)n1-c1ccc(OC3CC3)cc1)CCN(C(=O)c1ccc(Br)c(Cl)c1)C2 [Example 421, 7-(4-bromo-3-chloro-benzoyl)-2-[4-(cyclopropoxy)phenyl]-N-[[2-(4-fluoropyrazol-1-yl)phenyl]methyl]-3-oxo-6,8-dihydro-5H-imidazo[1,5-a]pyrazine-1-carboxamide] | < 100
12 | O=C(NCc1ccccc1-n1cncn1)c1c2n(c(=O)n1-c1ccc(OC3CC3)cc1)CCN(C(=O)c1ccc(Br)c(Cl)c1)C2 [Example 422, 7-(4-bromo-3-chloro-benzoyl)-2-[4-(cyclopropoxy)phenyl]-3-oxo-N-[[2-(1,2,4-triazol-1-yl)phenyl]methyl]-6,8-dihydro-5H-imidazo[1,5-a]pyrazine-1-carboxamide] | < 100
13 | O=C(NCc1ccccc1-c1ccncn1)c1c2n(c(=O)n1-c1ccc(OCC(F)(F)F)cc1)CCN(C(=O)c1ccc(Br)c(Cl)c1)C2 [Example 423, 7-(4-bromo-3-chloro-benzoyl)-3-oxo-N-[(2-pyrimidin-4-ylphenyl)methyl]-2-[4-(2,2,2-trifluoroethoxy)phenyl]-6,8-dihydro-5H-imidazo[1,5-a]pyrazine-1-carboxamide] | < 100
14 | O=C(NCc1ccccc1-c1ccncn1)c1c2n(c(=O)n1-c1ccc(OC3CC3)cc1)CCN(C(=O)c1ccc(Br)c(Cl)c1)C2 [Example 424, 7-(4-bromo-3-chloro-benzoyl)-2-[4-(cyclopropoxy)phenyl]-3-oxo-N-[(2-pyrimidin-4-ylphenyl)methyl]-6,8-dihydro-5H-imidazo[1,5-a]pyrazine-1-carboxamide] | < 100
15 | O=C(NCc1ccccc1-c1ncc[nH]1)c1c2n(c(=O)n1-c1ccc(OCC(F)(F)F)cc1)CCN(C(=O)c1ccc(Br)c(Cl)c1)C2 [Example 425, 7-(4-bromo-3-chloro-benzoyl)-N-[[2-(1H-imidazol-2-yl)phenyl]methyl]-3-oxo-2-[4-(2,2,2-trifluoroethoxy)phenyl]-6,8-dihydro-5H-imidazo[1,5-a]pyrazine-1-carboxamide] | < 100
16 | N#Cc1cc(C(=O)N2CCn3c(c(C(=O)NCc4ccccc4-c4ncccn4)n(-c4ccc(-n5cccn5)cc4)c3=O)C2)ccc1Br [Example 426, 7-(4-bromo-3-cyano-benzoyl)-3-oxo-2-(4-pyrazol-1-ylphenyl)-N-[(2-pyrimidin-2-ylphenyl)methyl]-6,8-dihydro-5H-imidazo[1,5-a]pyrazine-1-carboxamide] | 100 to 500
17 | O=C(NCc1ccccc1)c1c2n(c(=O)n1-c1ccc(-n3cc(F)cn3)cc1)CCN(C(=O)c1ccc(Br)c(Cl)c1)C2 [Example 427, N-benzyl-7-(4-bromo-3-chloro-benzoyl)-2-[4-(4-fluoropyrazol-1-yl)phenyl]-3-oxo-6,8-dihydro-5H-imidazo[1,5-a]pyrazine-1-carboxamide] | 100 to 500
18 | CC(C)(Oc1ccc(CNC(=O)c2c3n(c(=O)n2-c2ccc(OCC(F)(F)F)cc2)CCN(C(=O)c2ccc(Br)c(Cl)c2)C3)c(F)c1)C(N)=O [Example 428, N-[[4-(2-amino-1,1-dimethyl-2-oxo-ethoxy)-2-fluoro-phenyl]methyl]-7-(4-bromo-3-chloro-benzoyl)-3-oxo-2-[4-(2,2,2-trifluoroethoxy)phenyl]-6,8-dihydro-5H-imidazo[1,5-a]pyrazine-1-carboxamide] | 100 to 500
